Test results from patent publication US11485720B2, “Anti-infective agents” (University of Dundee, priority 2016, dated 2022).
“And” between values parts separate entries of the source, which are not always exact repeats. Equal values may be shown once. Where a name gives a salt, the structure may show the parent alone.

What was measured:
[1] = test system: Hep G2; test: Hep G2 in-vitro cytotoxicity assay; type: cell-based; details: Homo sapiens, HepG2, read-out: Hs HEPG2 pEC50 (converted)
Excerpt: In-vitro cytotoxicity studies can be carried out using Hep G2 (Human hepatocyte carcinoma, HPACC cat. no. 85011430) used as indicators for general mammalian cell toxicity. Hep G2 in-vitro cytotoxicity can be assessed using the assay procedure as described in “Use of a human-derived liver cell line for the detection of cytoprotective, antigenotoxic and cogenotoxic agents”, Volker Mersch-Sundermann, Siegfried Knasmüller, Xin-jiang Wu, Firouz Darroudi, Fekadu Kassie. J. Tox 198 (2004) 329-340) the contents of which are incorporated herein by reference.

[2] = target: T1, Plasmodium falciparum lysyl t-RNA synthetase (Pf-KRS1) (Plasmodium falciparum, UniProt Q8IDJ8); test: Pf-KRS1 inhibition biochemical assay (Kinase-Glo, ATP depletion); details: read-out: Pf-KRS pIC50 (converted)
T1 construct: Pf KRS1-; made in house; host or cells: E. coli BL21 (DE3)
Excerpt: Plasmodium falciparum Lysine tRNA Synthetase (KRS1) Biochemical Assay Methodology.
Lysine tRNA Synthetase (KRS1) is an enzyme which catalyses the esterification of L-Lysine to the appropriate transfer ribonucleic acid (tRNA), to form an aminoacyl-tRNA. Once the tRNA is charged, a ribosome transfers the amino acid from the tRNA onto a growing peptide, according to the genetic code.
The substrates of this reaction are L-lysine, and adenosine triphosphate (ATP), the overall reaction is: amino acid+tRNA+ATP→aminoacyl-tRNA+AMP+PPi
In this overall reaction AMP is adenosine monophosphate and PP; is inorganic pyrophosphate. The reaction progression in a biochemical assay can be tracked by the depletion of one of the substrates, in the case of this invention, ATP. This was done using the proprietary assay kit, Kinase Glo® Assay which is a luminescent kinase assay platform suitable for monitoring kinase activities using up to 10 μm ATP which is commercially available from the Promega Corporation of Madison, Wis., USA. The Kinase-Glo® Assay was performed in a single well of a multiwell plate by adding a volume of Kinase-Glo® Reagent equal to the volume of a completed kinase reaction and measuring luminescence. The resulting luminescent signal is correlated with the amount of ATP present and is inversely correlated with the amount of kinase activity. As such by use of this assay methodology a reduction of the luminescent signal is relative to the reduction in ATP as the reaction progresses. A compound which inhibits the action of KRS will show no drop in the luminescent signal from assay controls.
Assays were performed using both Plasmodium falciparum and human KRS to assess any selectivity of various test compounds.
Test compounds were solubilized in DMSO at a top concentration of 10 mM and serially diluted 1 in 3 to achieve a range of final assay concentrations of 50 μM to 2.5 nM in 10 μl reaction volume.
KRS was diluted to a working concentration of 75 nM in assay buffer (25 mM HEPES, 25 mM KOH, 10 mM MgCl2.6H2O, 50 mM KCl), and the following ‘Master Mix’ prepared in assay buffer: 0.1 mg/ml BSA, 250 μM DTT, 200 μM Spermine, 0.05% NP-40, ATP 3 μM for Pf KRS1 (4 μM for Hs KRS1), 0.4 mg/ml tRNA from Yeast, 60 μM L-Lysine, 0.5 U/ml Pyrophosphatase.
Plates were incubated at room temperature for 5 h for Pf KRS (2.5 hrs for HsKRS), then the assay stopped by the addition of 10 μl of The Kinase-Glo® Reagent Assay was performed in a single well of a multiwell plate by adding a volume of Kinase-Glo® Reagent which is commercially available from the Promega Corporation of Madison, Wis., USA. The plates were incubated in the dark for a further 15 mins before being read for luminescence on a BMG PHERAstar® FSX plate reader which is a multi-mode reader for use in high-throughput screening available from BMG Labtech if Cary, N.C., USA. Data were analysed by calculating the percentage inhibition compared to the maximum and minimum assay controls. Concentration effect curves were fitted using nonlinear regression within ActivityBase and IC50 values were determined using standard protocols.

[3] = test system: Cryptosporidium parvum; test: In vitro Crytosporidium inhibition assay; type: cell-based; details: Cryptosporidium parvum; read-out: Cryptosporidium parvum pEC50 (converted)
Excerpt: Assay Method for Measurement of In Vitro Inhibition of Crytosporidium.
These experiments were run in accordance with the method of Besssoff et. al. Antimicrob. Agents Chemother. 2013, 57:1804-1814. Results from these experiments are provided in the Experimental Results hereinafter.

[4] = test system: Plasmodium falciparum strain 3D7; test: Plasmodium falciparum 3D7 in vitro growth inhibition (SYBRgreen I); type: cell-based; details: Plasmodium falciparum, 3D7; read-out: pEC50 for Pf 3D7 (converted)
Method: Parasite Cultures and Cytotoxicity Assay Methodology for Plasmodium falciparum. […] Growth inhibition of the Plasmodium falciparum cultures was quantified in a 10-point dose response curve with a 1 in 3 dilution series from a top assay concentration of 50 μM. This 384 well plate based fluorescence assay utilises the binding of SYBRgreen I (Thermo Fisher Scientific/Invitrogen cat. no. S7585) to double stranded DNA, which greatly increases the fluorescent signal at 528 nm after excitation at 485 nm. Mefloquine was used as a drug control to monitor the quality of the assay (Z′=0.6 to 0.8, where Z′ is a measure of the discrimination between the positive and negative controls on a screen plate). Dose-response curves were determined from a minimum of 3 independent experiments. Compound bioactivity was expressed as EC50, the effective concentration of compound causing 50% parasite death.

T1 sequence (Q8IDJ8 entry or part of it, looked up, natural form): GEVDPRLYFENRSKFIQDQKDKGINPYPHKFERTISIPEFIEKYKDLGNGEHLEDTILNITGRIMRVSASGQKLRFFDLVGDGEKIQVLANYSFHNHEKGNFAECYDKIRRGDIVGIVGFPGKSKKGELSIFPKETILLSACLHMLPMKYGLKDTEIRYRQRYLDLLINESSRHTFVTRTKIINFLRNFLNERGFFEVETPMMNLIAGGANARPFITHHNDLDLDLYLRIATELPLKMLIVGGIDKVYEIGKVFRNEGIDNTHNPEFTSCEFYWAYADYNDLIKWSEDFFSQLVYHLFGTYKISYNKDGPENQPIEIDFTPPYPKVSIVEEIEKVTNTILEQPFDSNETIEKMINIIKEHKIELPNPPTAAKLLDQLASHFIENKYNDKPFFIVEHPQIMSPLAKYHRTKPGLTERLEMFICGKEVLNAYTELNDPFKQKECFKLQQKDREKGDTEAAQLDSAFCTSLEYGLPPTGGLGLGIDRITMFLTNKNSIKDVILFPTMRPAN

SMILES	EC50 [1] [nM]	IC50 [2]	EC50 [3] [nM]	EC50 [4] [nM]
O=C(NCC1CCCCC1)c1cc(=O)c2cccc(F)c2o1 [Example 8, N-(cyclohexylmethyl)-8-fluoro-4-oxo-chromene-2-carboxamide]	50100			
O=C(NCC1CCCCC1)c1cc(=O)c2ccc(Cl)cc2o1 [Example 9, 7-chloro-N-(cyclohexylmethyl)-4-oxo-chromene-2-carboxamide]		200 nM	3550	1580
O=C(NCC1CCCC1)c1cc(=O)c2ccccc2o1 [Example 23, N-(cyclopentylmethyl)-4-oxo-chromene-2-carboxamide]		398 nM	2000	1580
O=C(NCCC1CCCC1)c1cc(=O)c2ccccc2o1 [Example 26, N-(2-cyclopentylethyl)-4-oxo-chromene-2-carboxamide]		501 nM	10000	6310
O=C(NCC1CCCCO1)c1cc(=O)c2cc(F)ccc2o1 (stereo not drawn) [Example 32, 6-fluoro-4-oxo-N-(tetrahydropyran-2-ylmethyl)chromene-2-carboxamide]		398 nM and 794 nM		1580
O=C(NCC1CC2CCC1C2)c1cc(=O)c2cc(F)ccc2o1 (stereo not drawn) [Example 36, 6-fluoro-N-(norbornan-2-ylmethyl)-4-oxo-chromene-2-carboxamide]		126 nM	1260	794
O=C(NCC1(CCO)CCCCC1)c1cc(=O)c2cc(F)ccc2o1 [Example 40A, 6-Fluoro-N-((1-(2-hydroxyethyl)cyclohexyl)methyl)-4-oxo-4H-chromene-2-carboxamide]	50100	200 nM		200
O=C(NCC1CCCCC1)c1cc(=O)c2ccc(F)cc2o1 [Example 42, N-(cyclohexylmethyl)-7-fluoro-4-oxo-chromene-2-carboxamide]		200 nM	1260	794
NC(=O)c1ccc2oc(C(=O)NCC3CCCCC3)cc(=O)c2c1 [Example 43, N2-(cyclohexylmethyl)-4-oxo-chromene-2,6-dicarboxamide]		398 nM	5010	3160
CCc1ccc2oc(C(=O)NCC3(O)CCCCC3)cc(=O)c2c1 [Example 45, 6-ethyl-N-[(1-hydroxycyclohexyl)methyl]-4-oxo-chromene-2-carboxamide]	50100			
O=C(NC[C@@H]1CCCC[C@H]1O)c1cc(=O)c2cc(F)ccc2o1 [Example 57E, 6-Fluoro-N-(((1S,2R)-2-hydroxycyclohexyl)methyl)-4-oxo-4H-chromene-2-carboxamide]	50100			
CCOC(=O)CC1(CNC(=O)c2cc(=O)c3cc(F)ccc3o2)CCCCC1 [Example 57K, Ethyl 2-(1-((6-fluoro-4-oxo-4H-chromene-2-carboxamido)methyl)cyclohexyl)acetate]		316 nM		
O=C(NCC1CCCCC1)c1cc(=O)c2cccc(OCCN3CCNCC3)c2o1 [Example 62, N-(cyclohexylmethyl)-4-oxo-8-(2-piperazin-1-ylethoxy)chromene-2-carboxamide dihydrochloride]	50100			
COc1cccc2c(=O)cc(C(=O)NCC3CCCCC3)oc12 [Example 66, N-(cyclohexylmethyl)-8-methoxy-4-oxo-4H-chromene-2-carboxamide]		501 nM		2510
O=C(NCC1(O)CCCC1)c1cc(=O)c2cc(F)cc(O)c2o1 [Example 76F, 6-fluoro-8-hydroxy-N-((1-hydroxycyclopentyl)methyl)-4-oxo-4H-chromene-2-carboxamide]		79.4 nM		501
O=C(NCC1(O)CCC(F)(F)CC1)c1cc(=O)c2ccc(F)c(O)c2o1 [Example 80, N-((4,4-difluoro-1-hydroxycyclohexyl)methyl)-7-fluoro-8-hydroxy-4-oxo-4H-chromene-2-carboxamide]	50100	316 nM		
O=C(NCC1CCCCC1)c1cc(=O)c2cccc(CO)c2o1 [Example 82, N-(cyclohexylmethyl)-8-(hydroxymethyl)-4-oxo-chromene-2-carboxamide]	50100	251 nM		200
CS(=O)(=O)Nc1cccc2c(=O)cc(C(=O)NCC3(O)CCCCC3)oc12 [Example 84A, N-[(1-hydroxycyclohexyl)methyl]-8-(methylsulfonamido)-4-oxo-4H-chromene-2-carboxamide]	50100			
COC(=O)c1cccc2c(=O)cc(C(=O)NCC3CCCCC3)oc12 [Example 87, Methyl 2-((cyclohexylmethyl)carbamoyl)-4-oxo-4H-chromene-8-carboxylate]	25100			126
O=C(NCC1CCCCC1)c1cc(=O)c2cccc(C(=O)O)c2o1 [Example 88, 2-((Cyclohexylmethyl)carbamoyl)-4-oxo-4H-chromene-8-carboxylic acid]			7940	
NC(=O)c1cccc2c(=O)cc(C(=O)NCC3CCCCC3)oc12 [Example 89, N2-(cyclohexylmethyl)-4-oxo-4H-chromene-2,8-dicarboxamide]	50100	501 nM		
Cc1c(C(=O)NCC2CCCCC2)oc2ccccc2c1=O [Example 90, N-(cyclohexylmethyl)-3-methyl-4-oxo-4H-chromene-2-carboxamide]		1260 nM		5010
Nc1c(F)ccc2c(=O)cc(C(=O)NCC3(O)CCC(F)(F)CC3)oc12 [Example 92, 8-Amino-N-[(4,4-difluoro-1-hydroxy-cyclohexyl)methyl]-7-fluoro-4-oxo-chromene-2-carboxamide]				79.4
Nc1cc(F)cc2c(=O)cc(C(=O)NCC3(O)CCCCC3)oc12 [Example 96, 8-amino-6-fluoro-N-[(1-hydroxycyclohexyl)methyl]-4-oxo-4H-chromene-2-carboxamide]				12.6
Nc1cc(F)cc2c(=O)cc(C(=O)NCC3(F)CCCCC3)oc12 [Example 97, 8-amino-6-fluoro-N-[(1-fluorocyclohexyl)methyl]-4-oxo-4H-chromene-2-carboxamide]	20000			39.8
Nc1cc(F)cc2c(=O)cc(C(=O)NC[C@H]3CC[C@H](O)CC3)oc12 [Example 98, 8-amino-6-fluoro-N-[(4-hydroxycyclohexyl)methyl]-4-oxo-chromene-2-carboxamide]	50100			631
CS(=O)(=O)Nc1cc(F)cc2c(=O)cc(C(=O)NCC3CCCCC3)oc12 [Example 100, N-(cyclohexylmethyl)-6-fluoro-8-(methanesulfonamido)-4-oxo-chromene-2-carboxamide]	50100	158 nM		200
